We go through two compounds from ChEMBL document CHEMBL1121530, “Potential carcinostatics. 4. Synthesis and biological properties of erythro- and threo-beta-fluoroaspartic acid and erythro-beta-fluoroasparagine” (J Med Chem, 1980).

The subject of test [1] is L5178Y. As to the kind of experiment: Tested in vivo for antileukemic activity in the asparagine dependent L5178Y lymphatic leukemia cells in mice up to intraperitoneal doses 40 mg/kg; NA = no antitumor activity. Format: functional, organism-based. More on the design: dose 40 mg/kg. Conditions: Mus musculus.
The subject of test [2] is L5178Y. The test is described as follows: Tested in vivo for antileukemic activity in the asparagine dependent L5178Y lymphatic leukemia cells in mice up to intraperitoneal doses 100 mg/kg; NA = no antitumor activity. As to conditions: Mus musculus. On the set-up: dose 100 mg/kg. Format: functional, organism-based.

Molecules are shown by their SMILES. Calls of active or inactive are those of the source. The calls are words filed in the database; no cut-off is given here.

With `NC(C(=O)O)C(F)C(=O)O` (configuration not stated), the result in test [1] was inactive.
Consider `NC(=O)C(F)C(N)C(=O)O` (configuration not stated), for which, in test [2], the outcome was inactive.
